Data reported in ChEMBL document CHEMBL4616657, “Aromatic Esters of the Crinane Amaryllidaceae Alkaloid Ambelline as Selective Inhibitors of Butyrylcholinesterase” (J Nat Prod, 2020).

Key:
[1] = biological target: T1, Acetylcholinesterase (Homo sapiens, UniProt P22303); assay: Inhibition of human AChE using acetylthiocholine iodide as substrate at 100 uM measured for 1 min by spectrophotometric based Ellman's method relative to control
[2] = species on record: Homo sapiens; assay: Selectivity index, ratio of IC50 for inhibition of human AChE using acetylthiocholine iodide as substrate to inhibition of human BuChE using butyrylthiocholine iodide as substrate
[3] = biological target: T2, Cholinesterase (Homo sapiens, UniProt P06276); assay: Inhibition of human BuChE using butyrylthiocholine iodide as substrate at 100 uM measured for 1 min by spectrophotometric based Ellman's method relative to control
T2 sequence (P06276 whole entry): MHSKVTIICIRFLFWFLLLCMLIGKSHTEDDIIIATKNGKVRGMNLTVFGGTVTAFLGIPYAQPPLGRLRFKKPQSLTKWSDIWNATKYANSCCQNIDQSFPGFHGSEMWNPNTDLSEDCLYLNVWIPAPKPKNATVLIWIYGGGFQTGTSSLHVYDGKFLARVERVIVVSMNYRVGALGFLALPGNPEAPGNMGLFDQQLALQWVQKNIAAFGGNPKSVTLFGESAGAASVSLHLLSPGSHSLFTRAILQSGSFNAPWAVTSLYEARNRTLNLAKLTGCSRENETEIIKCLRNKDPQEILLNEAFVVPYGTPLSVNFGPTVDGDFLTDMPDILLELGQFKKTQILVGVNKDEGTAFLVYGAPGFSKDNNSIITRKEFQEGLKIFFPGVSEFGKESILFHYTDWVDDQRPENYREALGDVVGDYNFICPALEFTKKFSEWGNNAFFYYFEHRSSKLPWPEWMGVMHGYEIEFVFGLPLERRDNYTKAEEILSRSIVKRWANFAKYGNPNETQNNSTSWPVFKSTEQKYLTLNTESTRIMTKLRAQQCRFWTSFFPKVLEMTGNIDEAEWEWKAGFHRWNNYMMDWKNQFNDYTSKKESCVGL

[4] = biological target: T2, Cholinesterase; assay: Inhibition of human BuChE using butyrylthiocholine iodide as substrate measured for 1 min by spectrophotometric based Ellman's method
[5] = biological target: T1, Acetylcholinesterase; assay: Inhibition of human AChE using acetylthiocholine iodide as substrate measured for 1 min by spectrophotometric based Ellman's method
[6] = Effective permeability of the compound at pH 7.4 at 100 uM measured after 3 to 6 hrs by PAMPA assay; format: ADME; details: read-out: Peff
[7] = biological target: Cholinesterase (Equus caballus, UniProt P81908); assay: Inhibition of horse serum BuChE using butyrylthiocholine chloride as substrate by spectrophotometric based Ellman's method
Cholinesterase (Equus caballus, UniProt P81908), sequence (P81908 whole entry): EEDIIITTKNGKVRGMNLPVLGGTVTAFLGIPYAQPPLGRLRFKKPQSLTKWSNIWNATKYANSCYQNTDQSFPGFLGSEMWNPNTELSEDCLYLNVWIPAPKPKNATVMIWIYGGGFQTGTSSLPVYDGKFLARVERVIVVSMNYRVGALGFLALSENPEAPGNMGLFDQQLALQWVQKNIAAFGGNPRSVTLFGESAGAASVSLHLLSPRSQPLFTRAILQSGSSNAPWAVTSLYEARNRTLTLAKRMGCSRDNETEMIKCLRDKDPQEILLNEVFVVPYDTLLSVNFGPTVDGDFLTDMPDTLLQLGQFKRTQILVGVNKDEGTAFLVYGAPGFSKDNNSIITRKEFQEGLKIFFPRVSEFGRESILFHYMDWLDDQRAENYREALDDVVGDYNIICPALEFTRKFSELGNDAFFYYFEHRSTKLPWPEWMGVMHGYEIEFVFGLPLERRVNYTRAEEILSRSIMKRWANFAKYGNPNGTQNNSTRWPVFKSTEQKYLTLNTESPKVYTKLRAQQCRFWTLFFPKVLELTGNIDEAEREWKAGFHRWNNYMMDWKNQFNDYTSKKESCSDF

T1 sequence (P22303 whole entry): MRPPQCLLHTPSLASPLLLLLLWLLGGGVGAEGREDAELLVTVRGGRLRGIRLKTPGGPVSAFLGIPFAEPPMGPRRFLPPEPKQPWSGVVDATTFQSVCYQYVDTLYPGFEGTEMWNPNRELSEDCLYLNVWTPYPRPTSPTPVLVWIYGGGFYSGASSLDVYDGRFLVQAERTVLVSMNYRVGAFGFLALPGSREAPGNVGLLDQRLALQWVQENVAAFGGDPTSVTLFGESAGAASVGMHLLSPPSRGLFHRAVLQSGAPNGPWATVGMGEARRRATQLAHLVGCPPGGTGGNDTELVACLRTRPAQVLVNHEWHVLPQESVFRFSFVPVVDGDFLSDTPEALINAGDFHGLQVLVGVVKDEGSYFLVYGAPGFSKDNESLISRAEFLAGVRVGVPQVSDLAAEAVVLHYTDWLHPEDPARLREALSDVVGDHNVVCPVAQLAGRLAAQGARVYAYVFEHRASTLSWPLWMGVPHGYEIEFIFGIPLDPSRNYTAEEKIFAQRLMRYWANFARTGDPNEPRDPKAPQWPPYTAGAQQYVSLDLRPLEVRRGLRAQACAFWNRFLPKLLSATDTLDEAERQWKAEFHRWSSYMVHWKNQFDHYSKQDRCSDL

Row | Compound | inhibition [1] [%] | Ratio IC50 [2] | inhibition [3] [%] | IC50 [4] [µM] | IC50 [5] [µM] | Papp at 100 µM [6] [×10⁻⁶ cm/s] | IC50 [7] [µM]
1 | COc1c2c(cc3c1OCO3)[C@]13C=C[C@H](OC)C[C@@H]1[N@](C2)C[C@H]3OC(=O)c1ccccc1[N+](=O)[O-] | 75 | 23 | 97 | – | – | – | –
2 | COc1c2c(cc3c1OCO3)[C@]13C=C[C@H](OC)C[C@@H]1N(C2)C[C@H]3OC(=O)c1ccoc1 | – | – | – | 32 | > 100 | – | –
3 | COc1cccc(C(=O)O[C@@H]2CN3Cc4c(cc5c(c4OC)OCO5)[C@@]24C=C[C@H](OC)C[C@H]34)c1 | – | – | – | 6 | > 100 | – | –
4 | CCCCC(=O)O[C@@H]1C[N@@]2Cc3c(cc4c(c3OC)OCO4)[C@@]13C=C[C@H](OC)C[C@H]23 | 7 | – | 39 | > 100 | > 100 | – | –
5 | CCC(=O)O[C@@H]1C[N@@]2Cc3c(cc4c(c3OC)OCO4)[C@@]13C=C[C@H](OC)C[C@H]23 | 15 | – | 16 | > 100 | > 100 | – | –
6 | COc1c2c(cc3c1OCO3)[C@]13C=C[C@H](OC)C[C@@H]1[N@](C2)C[C@H]3OC(=O)c1cccc(C)c1 | 41 | > 116 | 98 | – | – | – | –
7 | COc1c2c(cc3c1OCO3)[C@]13C=C[C@H](OC)C[C@@H]1[N@](C2)C[C@H]3OC(=O)C(C)C | 3 | – | 12 | – | – | – | –
8 | COc1c2c(cc3c1OCO3)[C@]13C=C[C@H](OC)C[C@@H]1[N@](C2)C[C@H]3OC(=O)c1cccc([N+](=O)[O-])c1 | 58 | 0.6 | 53 | – | – | – | –
9 | CO[C@@H]1C=C[C@@]23c4cc5c(cc4CN(C[C@@H]2O)[C@H]3C1)OCO5 [(+)-HAEMANTHAMINE] | 6 | – | 13 | > 100 | > 100 | – | –
10 | COc1c2c(cc3c1OCO3)[C@]13C=C[C@H](OC)C[C@@H]1N(C2)C[C@H]3OC(=O)c1cccc(C)c1 | – | – | – | 0.86 | > 100 | 8 | –
11 | COc1c2c(cc3c1OCO3)[C@]13C=C[C@H](OC)C[C@@H]1[N@](C2)C[C@H]3OC(=O)c1cccc2ccccc12 | 21 | > 1000 | 96 | – | – | – | –
12 | CCOc1cc(OCC)cc(C(=O)O[C@@H]2C[N@@]3Cc4c(cc5c(c4OC)OCO5)[C@@]24C=C[C@H](OC)C[C@H]34)c1 | 30 | – | 42 | > 100 | > 100 | – | –
13 | COc1c2c(cc3c1OCO3)[C@]13C=C[C@H](OC)C[C@@H]1N(C2)C[C@H]3OC(=O)C(C)C | – | – | – | > 100 | > 100 | – | –
14 | COc1c2c(cc3c1OCO3)[C@]13C=C[C@H](OC)C[C@@H]1[N@](C2)C[C@H]3OC(C)=O | 4 | – | 28 | – | – | – | –
15 | COc1c2c(cc3c1OCO3)[C@]13C=C[C@H](OC)C[C@@H]1[N@](C2)C[C@H]3OC(=O)c1ccc([N+](=O)[O-])cc1 | 31 | – | 37 | > 100 | > 100 | – | –
16 | C[C@@H]([C@H]1[C@H](O)C[C@@]2(C)[C@@H]3CC[C@H]4C(C)(C)C(=O)C=C[C@@]45C[C@@]35CC[C@]12C)N(C)C | – | – | – | – | – | – | 1.1
17 | COc1c2c(cc3c1OCO3)[C@]13C=C[C@H](OC)C[C@@H]1N(C2)C[C@H]3OC(=O)c1ccccc1 | – | – | – | 3.8 | > 100 | 12 | –
18 | COc1c2c(cc3c1OCO3)[C@]13C=C[C@H](OC)C[C@@H]1[N@](C2)C[C@H]3OC(=O)c1ccc(C)cc1 | 28 | > 4 | 68 | – | – | – | –
19 | COc1c2c(cc3c1OCO3)[C@]13C=C[C@H](OC)C[C@@H]1[N@](C2)C[C@H]3OC(=O)c1ccccc1 | 25 | > 26 | 97 | – | – | – | –
